From ChEMBL document CHEMBL1201862, “PubChem BioAssay data set” (2004)
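Following 48 hours of exposure in 96-well plates, responses at five concentrations were used to interpolate endpoints linearly. Abbreviation: GI50, concentration required for 50% inhibition of growth.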 Activity calls are given as the source filed them. Rule as the data show it: active = GI50 up to about 1.1 µM and inactive = higher.

Columns and labels:
Assay in all cases: NCI-60 cell line screen, 48 h
A498 = system: A498
COLO 205 = system: COLO 205
EKVX = system: EKVX
HCC 2998 = system: HCC 2998
HCT-15 = system: HCT-15
HOP-62 = system: HOP-62
HOP-92 = system: HOP-92
K562 = system: K562
LOX IMVI = system: LOX IMVI
MCF7 = system: MCF7
MDA-N = system: MDA-N
Malme-3M = system: Malme-3M
NCI/ADR-RES = system: NCI/ADR-RES
OVCAR-3 = system: OVCAR-3
PC-3 = system: PC-3
SF-295 = system: SF-295
SK-MEL-5 = system: SK-MEL-5
SNB-19 = system: SNB-19
SNB-75 = system: SNB-75
T47D = system: T47D

Row | SMILES | GI50 (A498) | GI50 (COLO 205) | GI50 (EKVX) | GI50 (HCC 2998) | GI50 (HCT-15) [µM] | GI50 (HOP-62) | GI50 (HOP-92) | GI50 (K562) | GI50 (LOX IMVI) | GI50 (MCF7) | GI50 (MDA-N) | GI50 (Malme-3M) | GI50 (NCI/ADR-RES) | GI50 (OVCAR-3) | GI50 (PC-3) | GI50 (SF-295) | GI50 (SK-MEL-5) | GI50 (SNB-19) | GI50 (SNB-75) | GI50 (T47D)
1 | CCOC(=O)/C=C(\C(=O)OCC)n1ccc(=O)n(CC(=O)OCC)c1=O | 17.7 µM (inactive) | 1.26 µM (inactive) | 6.59 µM (inactive) | 16 µM (inactive) | 1.83 | 20.7 µM (inactive) | 1.45 µM (inactive) | 1.68 µM (inactive) | 2.11 µM (inactive) | 3.16 µM (inactive) | 5.96 µM (inactive) | 2.48 µM (inactive) | 9.57 µM (inactive) | 3.96 µM (inactive) | 4.74 µM (inactive) | 17.9 µM (inactive) | 13 µM (inactive) | 19.3 µM (inactive) | 9.75 µM (inactive) | 2.44 µM (inactive)
2 | Cc1ccc2c(c1)C(=O)C1(C2)Cc2cccc(C)c2C1=O (stereo not given) | > 100 µM (inactive) | > 100 µM (inactive) | > 100 µM (inactive) | > 100 µM (inactive) | > 100 | 88.9 µM (inactive) | 55 µM (inactive) | > 100 µM (inactive) | > 100 µM (inactive) | > 100 µM (inactive) | > 100 µM (inactive) | > 100 µM (inactive) | > 100 µM (inactive) | > 100 µM (inactive) | > 100 µM (inactive) | > 100 µM (inactive) | > 100 µM (inactive) | 35.2 µM (inactive) | > 100 µM (inactive) | > 100 µM (inactive)
3 | Cc1c([C@H](C)[C@@H]2NC[C@@H](C)C[C@H]2O)ccc2c1C[C@H]1[C@H]2CC=C2C[C@@H](O)CC[C@@]21C [VERATRAMINE] | 15.2 µM (inactive) | 14.4 µM (inactive) | 2.34 µM (inactive) | 13.2 µM (inactive) | 20.2 | 23.4 µM (inactive) | 2.07 µM (inactive) | 12.1 µM (inactive) | 11.6 µM (inactive) | 15.4 µM (inactive) | 15.7 µM (inactive) | 16.2 µM (inactive) | 23.4 µM (inactive) | 15.6 µM (inactive) | 11.5 µM (inactive) | 12.4 µM (inactive) | 10.8 µM (inactive) | 27.8 µM (inactive) | 17.5 µM (inactive) | 12.9 µM (inactive)
